According to ChEMBL document CHEMBL4396870, “Pharmacological Chaperones for the Treatment of α-Mannosidosis” (J Med Chem, 2019):
Substitutions are numbered along the chain they refer to.

How the values were obtained:
[1] = system: T1, Lysosomal alpha-mannosidase (Homo sapiens), O00754 [L352P]; test: Chaperone activity at human Lysosomal alpha-mannosidase L352P mutant transfected in human […] knockout HAP1 cells assessed as enzyme activity enhancement at 0.2 uM incubated for 96 hrs relative to control
T1 sequence (whole entry): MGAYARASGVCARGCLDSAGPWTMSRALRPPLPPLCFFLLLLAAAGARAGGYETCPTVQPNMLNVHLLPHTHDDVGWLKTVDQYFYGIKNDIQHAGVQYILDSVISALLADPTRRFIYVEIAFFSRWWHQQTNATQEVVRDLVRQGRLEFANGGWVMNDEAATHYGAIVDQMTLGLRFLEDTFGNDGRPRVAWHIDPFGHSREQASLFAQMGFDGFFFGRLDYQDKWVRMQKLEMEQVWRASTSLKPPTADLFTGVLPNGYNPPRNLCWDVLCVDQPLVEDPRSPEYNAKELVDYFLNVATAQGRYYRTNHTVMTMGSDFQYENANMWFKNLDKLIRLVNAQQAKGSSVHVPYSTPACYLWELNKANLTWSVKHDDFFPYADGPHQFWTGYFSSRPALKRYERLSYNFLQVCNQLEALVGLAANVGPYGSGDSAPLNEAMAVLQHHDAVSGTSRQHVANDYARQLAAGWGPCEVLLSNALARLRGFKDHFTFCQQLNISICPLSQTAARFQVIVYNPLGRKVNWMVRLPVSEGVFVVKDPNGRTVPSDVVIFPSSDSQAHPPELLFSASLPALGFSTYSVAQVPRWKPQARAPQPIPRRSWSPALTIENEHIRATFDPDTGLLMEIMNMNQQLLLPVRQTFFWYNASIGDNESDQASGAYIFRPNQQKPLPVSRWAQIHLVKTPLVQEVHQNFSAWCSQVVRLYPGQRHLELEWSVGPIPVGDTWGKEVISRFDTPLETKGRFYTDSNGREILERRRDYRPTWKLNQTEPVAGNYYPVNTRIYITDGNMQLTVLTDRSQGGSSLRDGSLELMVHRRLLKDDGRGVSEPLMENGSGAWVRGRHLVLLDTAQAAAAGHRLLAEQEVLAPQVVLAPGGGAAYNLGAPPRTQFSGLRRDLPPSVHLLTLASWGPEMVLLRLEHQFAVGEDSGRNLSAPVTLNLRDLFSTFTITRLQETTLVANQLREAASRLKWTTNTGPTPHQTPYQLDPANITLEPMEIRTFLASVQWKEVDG

[2] = system: T2, Lysosomal alpha-mannosidase (Homo sapiens), O00754 [C55F]; test: Chaperone activity at human Lysosomal alpha-mannosidase C55F mutant transfected in human […] knockout HAP1 cells assessed as enzyme activity enhancement at 0.2 uM incubated for 96 hrs relative to control
T2 sequence (whole entry): T1 sequence (whole entry) with C55F, P352L

Row | Activity [1] [%] | Activity [2] [%] | SMILES
1 | 0 | 13 | CC(C)(C)OC(=O)NCCCCCCCCCN[C@@H]1[C@@H](O)[C@@H](O)[C@H](O)[C@H]2COC(=O)N21
2 | 10 | 23 | COC[C@H]1O[C@@H]2O[C@H]3[C@H](OC)[C@@H](OC)[C@@H](O[C@H]4[C@H](OC)[C@@H](OC)[C@@H](O[C@H]5[C@H](OC)[C@@H](OC)[C@@H](O[C@H]6[C@H](OC)[C@@H](OC)[C@@H](O[C@H]7[C@H](OC)[C@@H](OC)[C@@H](O[C@H]8[C@H](OC)[C@@H](OC)[C@@H](O[C@H]1[C@H](OC)[C@H]2OC)O[C@@H]8COC)O[C@@H]7COC)O[C@@H]6COC)O[C@@H]5COCc1cn(CCCCCCN[C@@H]2[C@@H](O)[C@@H](O)[C@H](O)[C@H]5COC(=O)N52)nn1)O[C@@H]4COC)O[C@@H]3COC
